Source: patent US6716833B2, “Acetylenic α-amino acid-based sulfonamide hydroxamic acid tace inhibitors” (priority 1999, dated 2004)
Read-outs that look alike come from different tables or passages of the source.

How the values were obtained:
Type in all cases: biochemical
MMP-1 = target: T1, MMP-1 (Homo sapiens, UniProt P03956); assay: MMP-1 inhibition (thiopeptide or fluorescent peptide substrate); details: read-out: MMP-1 IC50
T1 sequence (P03956 100-469): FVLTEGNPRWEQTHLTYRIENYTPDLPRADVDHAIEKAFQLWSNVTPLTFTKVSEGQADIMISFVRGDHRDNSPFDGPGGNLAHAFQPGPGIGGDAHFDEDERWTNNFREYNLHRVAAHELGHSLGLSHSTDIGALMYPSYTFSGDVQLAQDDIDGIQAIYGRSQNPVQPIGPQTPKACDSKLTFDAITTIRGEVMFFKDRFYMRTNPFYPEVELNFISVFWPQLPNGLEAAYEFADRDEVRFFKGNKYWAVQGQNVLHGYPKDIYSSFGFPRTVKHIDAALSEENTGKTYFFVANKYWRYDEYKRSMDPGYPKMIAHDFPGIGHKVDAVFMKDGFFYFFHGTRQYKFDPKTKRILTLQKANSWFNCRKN

[1] = target: TNF-α converting enzyme (TACE) (Homo sapiens, UniProt P78536); assay: TACE inhibition (fluorescent peptidyl substrate); details: read-out: TACE IC50
Chain of TNF-α converting enzyme (TACE) (P78536 215-824, species assumed): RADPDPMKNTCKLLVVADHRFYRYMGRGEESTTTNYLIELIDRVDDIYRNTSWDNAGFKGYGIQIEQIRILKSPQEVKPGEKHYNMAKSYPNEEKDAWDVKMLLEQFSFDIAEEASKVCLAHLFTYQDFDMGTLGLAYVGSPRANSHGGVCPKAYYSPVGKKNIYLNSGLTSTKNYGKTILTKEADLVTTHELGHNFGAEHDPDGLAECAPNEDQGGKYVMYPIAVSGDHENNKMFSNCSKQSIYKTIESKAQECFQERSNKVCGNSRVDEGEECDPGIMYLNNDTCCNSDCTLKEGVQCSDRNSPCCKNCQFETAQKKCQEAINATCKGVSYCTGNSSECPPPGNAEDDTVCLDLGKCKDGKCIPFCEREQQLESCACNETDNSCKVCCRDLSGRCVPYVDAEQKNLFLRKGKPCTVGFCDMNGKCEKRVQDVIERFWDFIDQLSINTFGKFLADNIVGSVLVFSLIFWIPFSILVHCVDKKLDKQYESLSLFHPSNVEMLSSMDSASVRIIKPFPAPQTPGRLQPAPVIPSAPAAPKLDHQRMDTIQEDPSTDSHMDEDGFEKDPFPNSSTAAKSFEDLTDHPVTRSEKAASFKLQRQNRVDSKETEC

MMP-13 = MMP-13 (Homo sapiens, UniProt P45452); assay: MMP-13 inhibition (thiopeptide or fluorescent peptide substrate)
MMP-9 = MMP-9 (Homo sapiens, UniProt P14780); assay: MMP-9 inhibition (thiopeptide or fluorescent peptide substrate); details: read-out: MMP-9 IC50
Chain of MMP-9 (P14780 94-707): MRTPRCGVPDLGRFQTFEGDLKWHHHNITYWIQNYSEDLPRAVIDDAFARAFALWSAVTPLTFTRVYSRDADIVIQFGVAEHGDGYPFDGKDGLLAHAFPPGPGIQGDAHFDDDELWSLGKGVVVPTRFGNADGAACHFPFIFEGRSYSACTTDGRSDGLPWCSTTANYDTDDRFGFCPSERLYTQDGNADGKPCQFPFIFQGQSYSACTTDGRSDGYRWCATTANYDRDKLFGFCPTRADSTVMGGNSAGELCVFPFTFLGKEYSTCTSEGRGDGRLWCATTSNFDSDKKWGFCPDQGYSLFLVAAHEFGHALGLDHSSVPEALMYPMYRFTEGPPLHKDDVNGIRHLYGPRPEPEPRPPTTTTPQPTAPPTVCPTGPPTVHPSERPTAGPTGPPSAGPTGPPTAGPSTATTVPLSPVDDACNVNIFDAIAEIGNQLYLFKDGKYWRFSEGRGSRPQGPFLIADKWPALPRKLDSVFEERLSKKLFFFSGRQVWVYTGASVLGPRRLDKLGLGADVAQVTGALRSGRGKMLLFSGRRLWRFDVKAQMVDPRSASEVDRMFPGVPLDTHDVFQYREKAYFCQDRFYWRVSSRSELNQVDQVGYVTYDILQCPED

[2] = Table 10, read-out: MMP-13 IC50

IC50 (MMP-1; Table 10) [µM] | IC50 ([1]; Table 10) [µM] | IC50 (MMP-13; [2]) [µM] | IC50 (MMP-9; Table 10) [µM] | SMILES | IC50 (MMP-1) [µM] | IC50 [1] [µM] | IC50 (MMP-13; read-out: MMP-13 IC50) [µM] | IC50 (MMP-9) [µM] | IC50 (MMP-13; MMP-13 IC50) [µM]
 |  |  |  | CC#CCOc1ccc(S(=O)(=O)N(C)[C@@H](C(=O)NO)c2ccc(O[C@H]3CCN(C(=O)OC(C)(C)C)C3)cc2)cc1 [Example 189, tert-Butyl(3S)-3-{4-[(1R)-1-[{[4-(2-butynyloxy)phenyl]sulfonyl}(methyl)amino]-2-(hydroxyamino)-2-oxoethyl]phenoxy}-1-pyrrolidinecarboxylate] | 2.44 | 0.231 | 0.12 | 0.297 | 
 |  |  |  | CC#CCOc1ccc(S(=O)(=O)N(C)[C@@H](C(=O)NO)c2ccc(O[C@H]3CCNC3)cc2)cc1 [Example 190, (2R)-2-[{[4-(2-Butynyloxy)phenyl]sulfonyl}(methyl)amino]-N-hydroxy-2-{4-[(3S)-pyrrolidinyloxy]phenyl}ethanamide] | 0.527 | 0.032 | 0.029 | 0.037 | 
 |  |  |  | CC#CCOc1ccc(S(=O)(=O)N[C@@H](C(=O)NO)c2ccc(OCCNC(=O)OC(C)(C)C)cc2)cc1 [Example 199, tert-Butyl 2-{4-[(1R)-1-({[4-(2-Butynyloxy)phenyl]sulfonyl}amino)-2-(hydroxyamino)-2-oxoethyl]phenoxy}ethylcarbamate] | ~10 | 0.042 | 0.139 | 0.862 | 
 |  |  |  | CC#CCOc1ccc(S(=O)(=O)N[C@@H](C(=O)NO)c2ccc(OCCN)cc2)cc1 [Example 200, (2R)-2-[4-(2-Aminoethoxy)phenyl]-2-({[4-(2-butynyloxy)phenyl]sulfonyl}amino)-N-hydroxyethanamide] | ~10 | 0.015 | 0.176 | 0.518 | 
 |  |  |  | CC#CCOc1ccc(S(=O)(=O)N[C@@H](C(=O)NO)c2ccc(OCCNC(C)=O)cc2)cc1 [Example 201, (2R)-2-{4-[2-(Acetylamino)ethoxy]phenyl}-2-({[4-(2-butynyloxy)phenyl]sulfonyl}amino)-N-hydroxyethanamide] | ~10 | 0.0094 | 0.073 | 0.569 | 
 |  |  |  | CC#CCOc1ccc(S(=O)(=O)N(C)C(C(=O)NO)c2ccccc2)cc1 (stereo not shown) [Example 211, 2-[{[4-(2-Butynyloxy)phenyl]sulfonyl}(methyl)amino]-N-hydroxy-2-phenylacetamide] | 0.496 | 0.008 | 0.02 | 0.043 | 
 |  |  |  | CC#CCOc1ccc(S(=O)(=O)N2CCN(C(=O)N3CCOCC3)CC2C(=O)NO)cc1 (stereo not shown) [Example 215, 1-(4-but-2-ynyloxy-Benzenesulfonyl)-4-(morpholine-4-carbonyl)-piperazine-2-carboxylic Acid Hydroxyamide] | 0.695 | 0.035 | 0.039 | 0.06 | 
 |  |  |  | CC#CCOc1ccc(S(=O)(=O)N2CCN(C(=O)N3CCCC3)CC2C(=O)NO)cc1 (stereo not shown) [Example 217, 1-(4-but-2-ynyloxy-Benzenesulfonyl)-4-(pyrrolidine-1-carbonyl)-piperazine-2-carboxylic Acid Hydroxyamide] | 1.25 | 0.028 | 0.083 | 0.209 | 
 |  |  |  | CC#CCOc1ccc(S(=O)(=O)N2CCN(C(=O)N(C(C)C)C(C)C)CC2C(=O)NO)cc1 (stereo not shown) [Example 218, 4-(4-but-2-ynyloxy-Benzenesulfonyl)-piperazine-1,3-dicarboxylic Acid 1-Diisopropylamide 3-Hydroxyamide] | 3.29 | 0.049 | 0.213 | 0.822 | 
 |  |  |  | CC#CCOc1ccc(S(=O)(=O)N2CCN(C(=O)N(C)c3ccccc3)CC2C(=O)NO)cc1 (stereo not shown) [Example 220, 4-(4-but-2-ynyloxy-Benzenesulfonyl)-piperazine-1,3-dicarboxylic Acid 3-Hydroxyamide 1-(Methyl-phenyl-amide)] | 1.64 | 0.02 | 0.062 | 0.561 | 
 |  |  |  | CC#CCOc1ccc(S(=O)(=O)N2CCN(C(=O)Nc3ccc(OC)cc3)CC2C(=O)NO)cc1 (stereo not shown) [Example 221, 4-{[4-(2-Butynyloxy)phenyl]sulfonyl}-N-3-hydroxy-N-1-(4-methoxyphenyl)-1,3-piperazinedicarboxamide] | 1.51 | 0.069 | 0.182 | 0.576 | 
 |  |  |  | CC#CCOc1ccc(S(=O)(=O)N2CCN(C(=O)Nc3ccc(F)cc3)CC2C(=O)NO)cc1 (stereo not shown) [Example 222, 4-{[4-(2-Butynyloxy)phenyl]sulfonyl}-N-1-(4-fluorophenyl)-N-3-hydroxy-1,3-piperazinedicarboxamide] | 0.941 | 0.03 | 0.075 | 0.173 | 
 |  |  |  | CC#CCOc1ccc(S(=O)(=O)N2CCN(C(=O)Nc3cc(Cl)cc(Cl)c3)CC2C(=O)NO)cc1 (stereo not shown) [Example 223, 4-{[4-(2-Butynyloxy)phenyl]sulfonyl}-N-1-(3,5-dichlorophenyl)-N-3-hydroxy-1,3-piperazinedicarboxamide] | 1.72 | 0.083 | 0.153 | 0.642 | 
 |  |  |  | CC#CCOc1ccc(S(=O)(=O)N2CCN(C(C)=O)CC2C(=O)NO)cc1 (stereo not shown) [Example 224, 4-Acetyl-1-(4-but-2-ynyloxy-benzenesulfonyl)-piperazine-2-carboxylic Acid Hydroxyamide] | 0.357 | 0.013 | 0.022 | 0.088 | 
 |  |  |  | CC#CCOc1ccc(S(=O)(=O)N2CCN(C(=O)CC)CC2C(=O)NO)cc1 (stereo not shown) [Example 225, 1-(4-but-2-ynyloxy-Benzenesulfonyl)-4-propionyl-piperazine-2-carboxylic Acid Hydroxyamide] | 1 | 0.017 | 0.23 | 0.727 | 
 |  |  |  | CC#CCOc1ccc(S(=O)(=O)N2CCN(C(=O)CNC(=O)OC(C)(C)C)CC2C(=O)NO)cc1 (stereo not shown) [Example 229, {2-[4-(4-but-2-ynyloxy-Benzenesulfonyl)-3-hydroxycarbamoyl-piperazin-1-yl]-2-oxo-ethyl}-carbamic Acid tert-Butyl Ester] | 1.01 | 0.064 | 0.085 | 0.322 | 
 |  |  |  | CC#CCOc1ccc(S(=O)(=O)N2CCN(C(=O)CN)CC2C(=O)NO)cc1 (stereo not shown) [Example 230, 4-Aminoacetyl-1-(4-but-2-ynyloxy-benzenesulfonyl)-piperazine-2-carboxylic Acid Hydroxyamide] | 8.5 | 0.127 | 0.41 | 1.23 | 
 |  |  |  | CC#CCOc1ccc(S(=O)(=O)N2CCN(C(=O)C3(C)COC(C)(C)OC3)CC2C(=O)NO)cc1 (stereo not shown) [Example 231, 1-{[4-(2-Butynyloxy)phenyl]sulfonyl}-N-hydroxy-4-[(2,2,5-trimethyl-1,3-dioxan-5-yl)carbonyl]-2-piperazinecarboxamide] | 2.45 | 0.059 | 0.355 | 1.11 | 
 |  |  |  | CC#CCOc1ccc(S(=O)(=O)N2CCN(C(=O)C(C)(CO)CO)CC2C(=O)NO)cc1 (stereo not shown) [Example 232, 1-{[4-(2-Butynyloxy)phenyl]sulfonyl}-N-hydroxy-4-[3-hydroxy-2-(hydroxymethyl)-2-methylpropanoyl]-2-piperazinecarboxamide] | 1.68 | 0.044 | 0.289 | 0.785 | 
 |  |  |  | CC#CCOc1ccc(S(=O)(=O)N2CCN(Cc3ccc(Br)cc3)CC2C(=O)NO)cc1 (stereo not shown) [Example 233, 4-(4-Bromo-benzyl)-1-(4-but-2-ynyloxy-benzenesulfonyl)-piperazine-2-carboxylic Acid Hydroxyamide] | 2.83 | 0.184 | 0.055 | 0.069 | 
 |  |  |  | CC#CCOc1ccc(S(=O)(=O)N2CCN(Cc3cccnc3)CC2C(=O)NO)cc1 (stereo not shown) [Example 234, 1-(4-but-2-ynyloxy-Benzenesulfonyl)-4-pyridin-3-ylmethyl-piperazine-2-carboxylic Acid Hydroxyamide] | 3.2 | 0.028 |  | 0.108 | 0.049
0.194 | 0.087 | 0.0041 | 0.178 | CC1(C)SCCN(S(=O)(=O)c2ccc(OCC#CCCOC3CCCCO3)cc2)C1C(=O)NO (stereo not shown) [Example 243, N-Hydroxy-2,2-dimethyl-4-[(4-{[5-(tetrahydro-2H-pyran-2-yloxy)-2-pentynyl]oxy}phenyl)sulfonyl]-3-thiomorpholine Carboxamide] |  |  |  |  | 
0.035 | 0.062 | 0.014 | 0.072 | CC1(C)SCCN(S(=O)(=O)c2ccc(OCC#CCCO)cc2)C1C(=O)NO (stereo not shown) [Example 244, N-Hydroxy-4-({4-[(5-hydroxy-2-pentynyl)oxy]phenyl}sulfonyl)-2,2-dimethyl-3-thiomorpholine Carboxamide] |  |  |  |  | 
0.3 | 0.112 | 0.0066 | 2.38 | CC(C)(C)OC(=O)NCCC#CCOc1ccc(S(=O)(=O)N2CCSC(C)(C)C2C(=O)NO)cc1 (stereo not shown) [Example 245, tert-Butyl 5-[4-({3-[(Hydroxyamino)carbonyl]-2,2-dimethyl-4-thiomorpholinyl}sulfonyl)phenoxy]-3-pentynylcarbamate] |  |  |  |  | 
1.05 | 0.138 | 0.027 | 0.041 | CC1(C)SCCN(S(=O)(=O)c2ccc(OCC#CCCN)cc2)C1C(=O)NO (stereo not shown) [Example 246, 4-({4-[(5-Amino-2-pentynyl)oxy]phenyl}sulfonyl)-N-hydroxy-2,2-dimethyl-3-thiomorpholine Carboxamide] |  |  |  |  | 
